Results taken from ChEMBL document CHEMBL4842391, “Discovery and Nanosized Preparations of (S,R)-Tylophorine Malate as Novel anti-SARS-CoV-2 Agents” (ACS Med Chem Lett, 2021).
Calls of active or inactive are those of the source. The calls are words filed in the database; no cut-off is given here.

Columns and labels:
[1] = Safety index, ratio of CC50 for African green monkey Vero cells to EC50 for antiviral activity against SARS-CoV-2 C-Tan-nCoV Wuhan strain 01 infected in African green monkey Vero cells; type: toxicity; details: read-out: Ratio CC50/EC50
[2] = Toxicity in Hamster rat infected with SARS-CoV-2 C-Tan-nCoV Wuhan strain 01 assessed as body weight loss at 5 mg/kg, inh measured after 4 days; type: organism-based; details: in vivo, inhaled_or_intranasal, 96 h, time 4 day
SARS-CoV-2 [3] = experiment: Antiviral activity against SARS-CoV-2 C-Tan-nCoV Wuhan strain 01 infected in African green monkey Vero cells assessed as inhibition of viral replication measured after 48 hrs by RT-qPCR method; type: functional, organism-based; details: Severe acute respiratory syndrome coronavirus 2, C-Tan-nCoV Wuhan strain 01, Vero
[4] = Cytotoxicity against African green monkey Vero cells; type: cell-based; details: chlorocebus sabaeus
SARS-CoV-2 [5] = experiment: Antiviral activity against SARS-CoV-2 C-Tan-nCoV Wuhan strain 01 virus infected in Hamster rat assessed as widening of perivascular interstitium at 5 mg/kg, inh administered for 3 days starting from 1 hr post infection and measured on day 4 by histopathological analysis; type: functional, organism-based; details: Severe acute respiratory syndrome coronavirus 2, time 4.0 day
SARS-CoV-2 [6] = experiment: Antiviral activity against SARS-CoV-2 C-Tan-nCoV Wuhan strain 01 virus infected in Hamster rat assessed as widening of bronchus at 5 mg/kg, inh administered for 3 days starting from 1 hr post infection and measured on day 4 by histopathological analysis; type: functional, organism-based; details: Severe acute respiratory syndrome coronavirus 2, time 4.0 day
SARS-CoV-2 [7] = experiment: Antiviral activity against SARS-CoV-2 C-Tan-nCoV Wuhan strain 01 virus infected in Hamster rat assessed as infiltration of neutrophils at 25 mg/kg, inh administered for 3 days starting from 1 hr post infection and measured on day 4 by histopathological analysis; type: functional, organism-based; details: Severe acute respiratory syndrome coronavirus 2, time 4.0 day
SARS-CoV-2 [8] = experiment: Antiviral activity against SARS-CoV-2 C-Tan-nCoV Wuhan strain 01 virus infected in Hamster rat assessed as widening of alveolar septum at 5 mg/kg, inh administered for 3 days starting from 1 hr post infection and measured on day 4 by histopathological analysis; type: functional, organism-based; details: Severe acute respiratory syndrome coronavirus 2, time 4.0 day
SARS-CoV-2 [9] = experiment: Antiviral activity against SARS-CoV-2 C-Tan-nCoV Wuhan strain 01 virus infected in Hamster rat assessed as infiltration of lymphocytes at 25 mg/kg, inh administered for 3 days starting from 1 hr post infection and measured on day 4 by histopathological analysis; type: functional, organism-based; details: Severe acute respiratory syndrome coronavirus 2, time 4.0 day
[10] = Toxicity in Hamster rat infected with SARS-CoV-2 C-Tan-nCoV Wuhan strain 01 assessed as body weight loss at 25 mg/kg, inh measured after 4 days; type: organism-based; details: in vivo, inhaled_or_intranasal, 96 h, time 4 day
SARS-CoV-2 [11] = experiment: Antiviral activity against SARS-CoV-2 C-Tan-nCoV Wuhan strain 01 virus infected in Hamster rat assessed as widening of bronchus at 25 mg/kg, inh administered for 3 days starting from 1 hr post infection and measured on day 4 by histopathological analysis; type: functional, organism-based; details: Severe acute respiratory syndrome coronavirus 2, time 4.0 day
SARS-CoV-2 [12] = experiment: Antiviral activity against SARS-CoV-2 C-Tan-nCoV Wuhan strain 01 virus infected in Hamster rat assessed as infiltration of neutrophils at 5 mg/kg, inh administered for 3 days starting from 1 hr post infection and measured on day 4 by histopathological analysis; type: functional, organism-based; details: Severe acute respiratory syndrome coronavirus 2, time 4.0 day
SARS-CoV-2 [13] = experiment: Antiviral activity against SARS-CoV-2 C-Tan-nCoV Wuhan strain 01 virus infected in Hamster rat assessed as widening of perivascular interstitium at 25 mg/kg, inh administered for 3 days starting from 1 hr post infection and measured on day 4 by histopathological analysis; type: functional, organism-based; details: Severe acute respiratory syndrome coronavirus 2, time 4.0 day
SARS-CoV-2 [14] = experiment: Antiviral activity against SARS-CoV-2 C-Tan-nCoV Wuhan strain 01 virus infected in Hamster rat assessed as widening of alveolar septum at 25 mg/kg, inh administered for 3 days starting from 1 hr post infection and measured on day 4 by histopathological analysis; type: functional, organism-based; details: Severe acute respiratory syndrome coronavirus 2, time 4.0 day
SARS-CoV-2 [15] = experiment: Antiviral activity against SARS-CoV-2 C-Tan-nCoV Wuhan strain 01 virus infected in Hamster rat assessed as infiltration of lymphocytes at 5 mg/kg, inh administered for 3 days starting from 1 hr post infection and measured on day 4 by histopathological analysis; type: functional, organism-based; details: Severe acute respiratory syndrome coronavirus 2, time 4.0 day

| SMILES | selectivity ratio [1] | Activity [2] | EC50 (SARS-CoV-2 [3]) [nM] | CC50 [4] [nM] | Activity (SARS-CoV-2 [5]) | Activity (SARS-CoV-2 [6]) | Activity (SARS-CoV-2 [7]) | Activity (SARS-CoV-2 [8]) | Activity (SARS-CoV-2 [9]) | Activity [10] | Activity (SARS-CoV-2 [11]) | Activity (SARS-CoV-2 [12]) | Activity (SARS-CoV-2 [13]) | Activity (SARS-CoV-2 [14]) | Activity (SARS-CoV-2 [15]) |
| --- | --- | --- | --- | --- | --- | --- | --- | --- | --- | --- | --- | --- | --- | --- | --- |
| COc1cc2c3c(c4cc(OC)c(OC)cc4c2cc1OC)CN1CCC[C@H]1C3.O=C(O)C[C@@H](O)C(=O)O | 268 | Non-Toxic | 30 | 26200 |  |  |  |  |  |  |  |  |  |  |  |
| CCC(CC)COC(=O)[C@H](C)N[P@](=O)(OC[C@H]1O[C@@](C#N)(c2ccc3c(N)ncnn23)[C@H](O)[C@@H]1O)Oc1ccccc1 [REMDESIVIR] |  |  | 800 |  | Active | Active | Active | Active | Active | Non-Toxic | Active | Active | Active | Active | Active |
